Laboratory results as given in a compilation of properties of binary mixtures (doi:10.1039/c3ra40303c).

Test: xn = mol fraction of the nth substance listed
Settings: 101 kPa

CC(O)C(=O)[O-].C[N+](C)(C)CCO + CCO
viscosity [mPa·s]
Settings	x2 = 0	x2 = 0.1039	x2 = 0.2011	x2 = 0.2996	x2 = 0.3999	x2 = 0.5003	x2 = 0.601	x2 = 0.7013	x2 = 0.7987	x2 = 0.8996
293.15 K	818	553	365	–	132.5	73.48	39.35	–	–	3.602
298.15 K	559	388	263.7	165.1	101.5	57.11	31.94	14.73	–	3.207
303.15 K	393	277.4	193.2	123.9	78.06	45.19	–	12.36	6.351	–
308.15 K	283.9	203.7	–	94.9	61.01	36.35	21.38	10.49	5.524	2.548
313.15 K	209.9	152.9	110.8	74.08	48.57	29.65	17.83	8.99	4.841	2.286
318.15 K	–	117.2	86.3	58.82	39.27	24.51	–	7.773	4.27	2.059
323.15 K	122.3	–	68.43	47.45	32.22	–	12.83	6.779	–	1.862
328.15 K	95.9	–	55.07	38.8	26.76	17.33	–	5.952	–	1.685
333.15 K	76.5	–	44.95	32.13	22.49	14.8	–	5.255	3.041	1.525
338.15 K	61.9	47.9	37.15	26.9	–	12.76	8.445	4.66	2.747	1.38
343.15 K	50.76	39.73	31.06	22.76	16.36	11.09	7.459	4.145	2.498	1.265

CC(O)C(=O)[O-].C[N+](C)(C)CCO + O
viscosity [mPa·s]
Settings	x2 = 0	x2 = 0.0992	x2 = 0.2048	x2 = 0.3008	x2 = 0.4038	x2 = 0.5026	x2 = 0.5858	x2 = 0.701	x2 = 0.7993	x2 = 0.8998
293.15 K	818	620	478	375	259.2	–	117.8	59.52	–	–
298.15 K	–	433	336.9	266.4	–	128	–	45.76	–	6.185
303.15 K	393	–	242.5	193.6	138.2	95.8	66.88	35.7	16.85	5.25
308.15 K	283.9	225.3	178.9	–	104.4	73.36	51.91	28.36	13.79	–
313.15 K	209.9	168.3	134.9	107.7	80.45	57.24	41.04	22.9	11.44	–
318.15 K	158.7	128.4	103.9	85.2	63.16	45.5	32.99	18.78	–	3.405
323.15 K	122.3	99.8	81.5	67.27	50.43	36.74	26.93	–	–	3.001
328.15 K	95.9	78.9	64.95	54	40.89	30.11	22.29	13.14	–	2.666
333.15 K	76.5	63.39	–	–	33.61	24.92	18.67	–	6.101	2.384
338.15 K	61.9	51.63	43.1	36.28	27.97	20.93	15.82	9.621	5.323	2.146
343.15 K	50.76	42.6	35.8	30.3	23.55	17.78	13.55	8.353	4.692	1.941
348.15 K	42.13	35.55	30.05	25.59	20.05	15.25	11.71	7.305	4.171	–
353.15 K	35.38	–	25.52	21.82	17.22	13.2	10.2	6.438	–	–
